A short description of the data set: activity coefficient (dimensionless); of the first substance listed, at infinite dilution; xn = mol fraction of the nth substance listed. The note with it: Liquid, Chromatography, x1 = 0.

Each structure is given as a SMILES string. Numbers after ± are expanded uncertainties.

Turning to `Cc1ccccc1C` [1,2-dimethylbenzene] + CCCC[N+]1(C)CCCCC1.N#C[S-], the activity coefficient amounted to 4.15 ± 0.28 (318.15 K); 4.18 ± 0.28 (328.15 K); 4.21 ± 0.29 (338.15 K); 4.24 ± 0.29 (348.15 K); 4.26 ± 0.29 (358.15 K).

With `Cc1cccc(C)c1` [1,3-dimethylbenzene] + CCCC[N+]1(C)CCCCC1.N#C[S-], the activity coefficient is, setting by setting: (318.15 K) 5.23 ± 0.36; (328.15 K) 5.25 ± 0.36; (338.15 K) 5.26 ± 0.36; (348.15 K) 5.27 ± 0.36; (358.15 K) 5.28 ± 0.36.

For the compound `Cc1ccc(C)cc1` [1,4-dimethylbenzene] + CCCC[N+]1(C)CCCCC1.N#C[S-], the activity coefficient reads like this: (318.15 K) 5.01 ± 0.34; (328.15 K) 5.04 ± 0.34; (338.15 K) 5.07 ± 0.35; (348.15 K) 5.1 ± 0.35; (358.15 K) 5.13 ± 0.35.

Take `C=CCCCCC` [1-heptene] + CCCC[N+]1(C)CCCCC1.N#C[S-]: the activity coefficient (318.15 K) came out at 60.3 ± 4.1; the activity coefficient (328.15 K) is 55.5 ± 3.8; the activity coefficient (338.15 K) came out at 51.7 ± 3.5; the activity coefficient (348.15 K) is 47.9 ± 3.3; the activity coefficient (358.15 K) stood at 45.7 ± 3.1.

With `C#CCCCCC` [1-heptyne] + CCCC[N+]1(C)CCCCC1.N#C[S-], the activity coefficient (318.15 K) was determined as 9.17 ± 0.63; the activity coefficient (328.15 K) is 9.19 ± 0.63; the activity coefficient (338.15 K) was found to be 9.2 ± 0.6; the activity coefficient (348.15 K) came to 9.23 ± 0.63; the activity coefficient (358.15 K) was 9.28 ± 0.63.

For the compound `C#CCCCC` [1-hexyne] + CCCC[N+]1(C)CCCCC1.N#C[S-], the activity coefficient worked out at 6.07 ± 0.41 (318.15 K); 6.11 ± 0.42 (328.15 K); 6.16 ± 0.42 (338.15 K); 6.19 ± 0.42 (348.15 K); 6.22 ± 0.42 (358.15 K).

For `C#CCCCCCC` [1-octyne] + CCCC[N+]1(C)CCCCC1.N#C[S-], the activity coefficient is 13.6 ± 0.9 (318.15 K); 13.6 ± 0.9 (328.15 K); 13.6 ± 0.9 (338.15 K); 13.7 ± 0.9 (348.15 K); 13.7 ± 0.9 (358.15 K).

As for `COC(C)(C)C` [2-methoxy-2-methylpropane] + CCCC[N+]1(C)CCCCC1.N#C[S-], the activity coefficient (318.2 K) amounted to 13.1 ± 0.9; the activity coefficient (328.2 K) came to 12.7 ± 0.9; the activity coefficient (338.2 K) came out at 12.4 ± 0.8; the activity coefficient (348.2 K) was found to be 12 ± 0.8; the activity coefficient (358.2 K) worked out at 11.8 ± 0.8.

Turning to `CC(C)=O` [acetone] + CCCC[N+]1(C)CCCCC1.N#C[S-], the activity coefficient was found to be 1.52 ± 0.1 (318.2 K); 1.52 ± 0.1 (328.2 K); 1.53 ± 0.1 (338.2 K); 1.54 ± 0.1 (348.2 K); 1.55 ± 0.1 (358.2 K).

For the compound `c1ccccc1` [benzene] + CCCC[N+]1(C)CCCCC1.N#C[S-], the activity coefficient (318.15 K) is 1.9 ± 0.13; the activity coefficient (328.15 K) came to 1.92 ± 0.13; the activity coefficient (338.15 K) stood at 1.95 ± 0.13; the activity coefficient (348.15 K) was determined as 1.97 ± 0.13; the activity coefficient (358.15 K) worked out at 1.99 ± 0.14.

In the case of `C1CCCCCC1` [cycloheptane] + CCCC[N+]1(C)CCCCC1.N#C[S-], the activity coefficient runs as follows: (318.15 K) 44.3 ± 3; (328.15 K) 41.5 ± 2.8; (338.15 K) 37.4 ± 2.6; (348.15 K) 34.6 ± 2.4; (358.15 K) 32.7 ± 2.2.

As to `C1CCCCC1` [cyclohexane] + CCCC[N+]1(C)CCCCC1.N#C[S-], the activity coefficient (318.15 K) stood at 39.8 ± 2.7; the activity coefficient (328.15 K) was 35.9 ± 2.5; the activity coefficient (338.15 K) came to 32.4 ± 2.2; the activity coefficient (348.15 K) was 29.4 ± 2; the activity coefficient (358.15 K) came out at 27.5 ± 1.9.

`C1CCCCCCC1` [cyclooctane] + CCCC[N+]1(C)CCCCC1.N#C[S-]: the activity coefficient reads like this: (318.15 K) 60 ± 4; (328.15 K) 54 ± 4; (338.15 K) 49.1 ± 3.4; (348.15 K) 44.7 ± 3.1; (358.15 K) 42.1 ± 2.9.

As to `C1CCCC1` [cyclopentane] + CCCC[N+]1(C)CCCCC1.N#C[S-], the activity coefficient was determined as 27.5 ± 1.9 (318.15 K); 24.2 ± 1.7 (328.15 K); 22.1 ± 1.5 (338.15 K); 19.9 ± 1.4 (348.15 K); 18.9 ± 1.3 (358.15 K).

Turning to `CCCCCCCCCC` [decane] + CCCC[N+]1(C)CCCCC1.N#C[S-], the activity coefficient by setting is: (318.15 K) 487 ± 34; (328.15 K) 433 ± 30; (338.15 K) 390 ± 27; (348.15 K) 342 ± 24; (358.15 K) 311 ± 21.

Consider `CCOCC` [diethyl ether] + CCCC[N+]1(C)CCCCC1.N#C[S-], for which the activity coefficient is, setting by setting: (318.2 K) 12 ± 0.8; (328.2 K) 11.6 ± 0.8; (338.2 K) 11.1 ± 0.8; (348.2 K) 10.8 ± 0.7; (358.2 K) 10.5 ± 0.7.

`CCCOCCC` [dipropyl ether] + CCCC[N+]1(C)CCCCC1.N#C[S-]: the activity coefficient was 35.1 ± 2.4 (318.2 K); 32.9 ± 2.3 (328.2 K); 31 ± 2.1 (338.2 K); 29.3 ± 2 (348.2 K); 28 ± 1.9 (358.2 K).

Turning to `CCO` [ethanol] + CCCC[N+]1(C)CCCCC1.N#C[S-], the activity coefficient reads like this: (318.15 K) 0.647 ± 0.044; (328.15 K) 0.637 ± 0.044; (338.15 K) 0.627 ± 0.043; (348.15 K) 0.618 ± 0.043; (358.15 K) 0.612 ± 0.043.

Consider `CCc1ccccc1` [ethylbenzene] + CCCC[N+]1(C)CCCCC1.N#C[S-], for which the activity coefficient reads like this: (318.15 K) 5.18 ± 0.35; (328.15 K) 5.18 ± 0.35; (338.15 K) 5.16 ± 0.35; (348.15 K) 5.15 ± 0.35; (358.15 K) 5.14 ± 0.35.

As for `CCCCCCC` [heptane] + CCCC[N+]1(C)CCCCC1.N#C[S-], the activity coefficient came to 170 ± 12 (318.15 K); 142 ± 10 (328.15 K); 127 ± 9 (338.15 K); 111 ± 8 (348.15 K); 102 ± 7 (358.15 K).

As to `C=CCCCC` [hex-1-ene] + CCCC[N+]1(C)CCCCC1.N#C[S-], the activity coefficient reads like this: (318.15 K) 41.3 ± 2.8; (328.15 K) 37 ± 3; (338.15 K) 34.6 ± 2.4; (348.15 K) 32 ± 2; (358.15 K) 30.1 ± 2.1.

In the case of `CCCCCC` [hexane] + CCCC[N+]1(C)CCCCC1.N#C[S-], the activity coefficient was found to be 124 ± 9 (318.15 K); 104 ± 7 (328.15 K); 89.3 ± 6.1 (338.15 K); 78.5 ± 5.4 (348.15 K); 68.5 ± 4.7 (358.15 K).

Consider `CO` [methanol] + CCCC[N+]1(C)CCCCC1.N#C[S-], for which the activity coefficient runs as follows: (318.15 K) 0.366 ± 0.033; (328.15 K) 0.368 ± 0.033; (338.15 K) 0.37 ± 0.033; (348.15 K) 0.371 ± 0.033; (358.15 K) 0.373 ± 0.033.

On to `CCCCCCCCC` [nonane] + CCCC[N+]1(C)CCCCC1.N#C[S-], for which the activity coefficient stood at 333 ± 23 (318.15 K); 293 ± 20 (328.15 K); 267 ± 18 (338.15 K); 234 ± 16 (348.15 K); 214 ± 15 (358.15 K).

On to `C=CCCCCCC` [oct-1-ene] + CCCC[N+]1(C)CCCCC1.N#C[S-], for which the activity coefficient came to 90.6 ± 6.2 (318.15 K); 83.7 ± 5.7 (328.15 K); 77.4 ± 5.3 (338.15 K); 71.5 ± 4.9 (348.15 K); 67.4 ± 4.6 (358.15 K).

Consider `CCCCCCCC` [octane] + CCCC[N+]1(C)CCCCC1.N#C[S-], for which the activity coefficient (318.15 K) came out at 236 ± 16; the activity coefficient (328.15 K) came to 206 ± 14; the activity coefficient (338.15 K) is 185 ± 13; the activity coefficient (348.15 K) is 161 ± 11; the activity coefficient (358.15 K) worked out at 150 ± 10.

For the compound `CCCC(C)=O` [pentan-2-one] + CCCC[N+]1(C)CCCCC1.N#C[S-], the activity coefficient (318.2 K) was 3.07 ± 0.21; the activity coefficient (328.2 K) came to 3.08 ± 0.21; the activity coefficient (338.2 K) came to 3.09 ± 0.21; the activity coefficient (348.2 K) turned out to be 3.11 ± 0.21; the activity coefficient (358.2 K) came to 3.12 ± 0.21.

Turning to `CCC(=O)CC` [pentan-3-one] + CCCC[N+]1(C)CCCCC1.N#C[S-], the activity coefficient is 3.08 ± 0.21 (318.2 K); 3.09 ± 0.21 (328.2 K); 3.11 ± 0.21 (338.2 K); 3.12 ± 0.21 (348.2 K); 3.13 ± 0.21 (358.2 K).

Consider `C1CCOC1` [tetrahydrofuran] + CCCC[N+]1(C)CCCCC1.N#C[S-], for which the activity coefficient is, setting by setting: (318.15 K) 2.28 ± 0.16; (328.15 K) 2.31 ± 0.16; (338.15 K) 2.34 ± 0.16; (348.15 K) 2.36 ± 0.16; (358.15 K) 2.38 ± 0.16.

Consider `c1ccsc1` [thiophene] + CCCC[N+]1(C)CCCCC1.N#C[S-], for which the activity coefficient runs as follows: (318.15 K) 1.1 ± 0.07; (328.15 K) 1.13 ± 0.07; (338.15 K) 1.17 ± 0.07; (348.15 K) 1.2 ± 0.08; (358.15 K) 1.23 ± 0.08.

As for `Cc1ccccc1` [toluene] + CCCC[N+]1(C)CCCCC1.N#C[S-], the activity coefficient reads like this: (318.15 K) 3.14 ± 0.21; (328.15 K) 3.16 ± 0.22; (338.15 K) 3.19 ± 0.22; (348.15 K) 3.21 ± 0.22; (358.15 K) 3.23 ± 0.22.

As to `O` [water] + CCCC[N+]1(C)CCCCC1.N#C[S-], the activity coefficient was determined as 0.332 ± 0.032 (328.15 K), 0.337 ± 0.032 (338.15 K), 0.342 ± 0.032 (348.15 K) and 0.348 ± 0.032 (358.15 K).
